This is an account of results in patent publication US11571485B2, “Peptides and antibodies for detecting changes in alzheimer's disease brain and methods of use thereof” (Sanford Burnham Prebys Medical Discovery Institute, priority 2016, dated 2023).

In one assay the test system is human AD brain sections. As to the kind of experiment: Ex vivo overlay binding to human AD brain sections. The method, then: PFA fixed sections were incubated in PBS for 10 minutes, followed by PBS-Triton-x-100 (0.2%) for 10 minutes. Sections were rinsed with PBST, mounted in a slide holder, and subsequently washed with PBS-T during 12 minutes. Slides were blocked with blocking buffer for 60 minutes at room temperature. Then, peptides were incubated at a concentration of 10 μg/mL dissolved in concentrated blocking buffer, for three hours at room temperature. Sections were then washed with three 4-minute washes of PBS-T, and subsequently fixed with PFA for 10 minutes, followed by three 3-minute washes with PBS-T. Sections were then incubated with primary antibody at 1/200 in diluted blocking buffer overnight at 4° C. Later, sections were washed with three 4-minute washes with PBS-T. Slides were then incubated with secondary antibody at 1/200 dilution in diluted blocking buffer for 30 minutes at room temperature, followed by three 4-minute washes of PBS-T. Sections were then counterstained with DAPI for 5 minutes, washed with PBS-T and mounted.
Postmortem human brain samples were obtained from the New York Brain Bank at Columbia University, New York. The patient was a person with a diagnosis of AD neuropathologic changes ([A3, B3, C3]). The normal brain tissue was obtained from BioChain Institute Inc. (Newark, Calif.). The donor was a person without any neurologic diagnosis on detailed neuropathologic evaluation. The Parkinson's disease brain tissue was obtained from UCSD Pathology bank. Frozen brain tissue was sectioned for immunohistochemistry and ex vivo overlay binding with FAM-peptides.

In another assay the test system is Tg2576 mouse brain. As to the kind of experiment: In vivo homing of FAM-DAG in Tg2576 mice. The method, then:
All animal experiments were conducted under an approved protocol of the Institutional Animal Care and Use Committee of Sanford Burnham Prebys Medical Discovery Institute. The following transgenic mouse models were used for peptide homing studies—hAPP-J20 ([…], Nature genetics 1, 345-347 (1992)), Tg2576 (Jacobsen et al., Proc Natl Acad Sci USA 103, 5161-5166 (2006)), and mTHY-1-α-synuclein model (Chesselet et al., Neurotherapeutics 9, 297-314 (2012)). The P13 glioblastoma model is a patient-derived orthotopic xenograft model (Bougnaud et al., Oncotarget, (2016)). Spheroids were cultured as described previously (Bjerkvig et al., J Neurosurg 72, 463-475 (1990)). After two weeks in culture, spheroids (volume 2.5 μl) were stereotactically implanted into the brains of nude mice. Mice were used approximately 6 weeks after tumors were induced, when mice started presenting neurological symptoms. The acute brain injury model was setup as previously described (Mann et al., Nature communications 7, 11980 (2016)). Briefly, 8 to 10 week-old male BL6 mice were anaesthetized with 4% isoflurane in 70% N2O and 30% O2, and a 5-mm craniotomy was performed using a portable drill and a trephine over the right parietotemporal cortex using a stereotactic frame. […]

Consider CDAGRKQKC, for which the “Binding to human AD brain sections” value with human AD brain sections (overlay) is on record as “bound strongly to the hippocampal region”. Further, in the assay on human AD brain sections (pre-incubation with anti-CTGF antibody), the “Inhibition of binding to human AD sections by anti-CTGF antibody” value is on record as “partially inhibited by pre-incubation with anti-CTGF antibody”. Besides, in the assay on Tg2576 mouse brain (DAG-injected Tg2576 mice, immunostaining), the “Colocalization in Tg2576 brain sections” value was “significant colocalization of DAG with Aβ and CD31”. Besides, the “Homing in Tg2576 model” value in the assay with Tg2576 mouse brain (i.v. FAM-DAG) was “detected both in the hippocampus and in the cortex”.
